{
  "source": "paper PMC6382874",
  "about": "“Succinylation-dependent mitochondrial translocation of PKM2 promotes cell survival in response to nutritional stress” (Cell Death & Disease, 2019)",
  "key": {"tumor cell": {"system": "tumor cell", "details": "cited from earlier work"}, "PKM2 [1]": {"system": "PKM2", "set-up": "method as in PMID 20005212", "details": "high-throughput screen; cited from earlier work"}, "VDAC3": {"system": "VDAC3", "assay": "VDAC3 protein level (western blot) in HCT116 cells", "type": "cell-based, human", "details": "10 μM, 8 h, HCT116", "text": "HCT116 cell lysates were subject to immunoprecipitation with control IgG and anti-VDAC3 antibodies. d, e In vitro binding assay of purified His-tagged-PKM2 and GST-tagged-VDAC3. f K433E enhanced the interaction of PKM2 and VDAC3. Stagged-WT PKM2, a succinylation mimic K433E and a succinylation null mutant K433R and flag-VDAC3 were co-transfected into HCT116 cells for Stag bead pull down that specially pulls down Stagged proteins. g Glucose starvation enhanced the interaction of PKM2 and VDAC3. […]\nFig. 6 Compound 8 blocks PKM2 mitochondrial translocation under nutritional stress and inhibits tumor growth in vivo. a Compound 8 blocks glucose starvation induced PKM2 mitochondrial translocation. […] HCT116 cells were transfected with HA-tagged PKM2, cells were harvested and subjected to stag pull down after 8 h 20 µM compound 8 treatment. c Compound 8 induces VDAC3 for degradation. cells were harvested and evaluated VDAC3 protein levels after 8 h 10 or 20 µM compound 8 treatment. d, e Compound 8 caused a decrease in the rate of NADH oxidation. […] NAD/NADH ratios in HCT116 cell lysates were evaluated by LC–MS. f Compound 8 inhibited ATP production in HCT116 cells. g The tumor volume (n = 7) of HCT116 xenografts from mice with intraperitoneal injection of compound 8 and vehicle control […]"}, "PKL": {"molecular_target": "T1, PKL (Homo sapiens, UniProt P30613)", "T1 construct": "purchased Sino Biological Inc", "T1 sequence (P30613 1-543 isoform P30613-2, species assumed)": "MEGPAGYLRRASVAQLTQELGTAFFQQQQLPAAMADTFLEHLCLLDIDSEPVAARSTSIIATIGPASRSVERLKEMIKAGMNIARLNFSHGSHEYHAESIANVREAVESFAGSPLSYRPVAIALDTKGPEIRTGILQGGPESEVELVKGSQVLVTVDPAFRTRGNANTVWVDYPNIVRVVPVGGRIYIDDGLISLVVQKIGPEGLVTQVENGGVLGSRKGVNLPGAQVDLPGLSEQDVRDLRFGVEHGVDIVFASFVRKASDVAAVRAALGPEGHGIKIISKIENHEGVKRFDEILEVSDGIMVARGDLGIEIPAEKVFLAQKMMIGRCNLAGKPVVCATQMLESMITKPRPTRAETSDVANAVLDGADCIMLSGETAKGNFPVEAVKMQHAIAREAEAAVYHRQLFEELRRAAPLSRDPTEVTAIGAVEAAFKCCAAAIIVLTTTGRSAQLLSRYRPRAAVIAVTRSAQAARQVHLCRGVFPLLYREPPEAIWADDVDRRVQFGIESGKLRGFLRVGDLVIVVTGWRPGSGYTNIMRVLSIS", "assay": "fluorescent PK-LDH coupled assay, PKL", "type": "biochemical", "description": "(§1) Human cDNA for PKM2, PKM1, and VDAC3 were separately cloned into a pET28a (+) and pGEX-4T-1 vector with an N-terminal His-tag and N-terminal GST-tag and purified from the Escherichia coli strain BL21 (Invitrogen) using Ni–agarose beads and GST agarose beads (Qiagen) as described previously. PKL was purchased from Sino Biological Inc. in China.\n(§2) Pyruvate kinase activity was measured with a fluorescent pyruvate kinase–lactate dehydrogenase coupled assay as described previously. All compounds were tested in a kinetic mode by coupling the generation of pyruvate by pyruvate kinase to the depletion of NADH through lactate dehydrogenase. For PKM2, 40 μL of buffer (50 mM Tris–HCl, pH 7.5, 10 mM KCl, 5 mM MgCl2), 1 μL of compound and 5 μL of enzyme solution were dispensed into Corning black solid 96-well plates and incubated for 15 min. Totally, 55 μL of substrate mix (final concentration, 0.5 mM PEP, 4.0 mM ADP, 0.12 mM NADH, 0.25 mM FBP, and 1 unit LDH) were then added, and the plates were placed in a FlexStation3 (Molecular Devices), followed by determination of NADH fluorescence at 30 s exposure intervals for 3–6 min. Data were collected on a FlexStation3."}, "H1299 cells": {"system": "H1299 cells", "assay": "cell viability test, H1299", "type": "cell-based", "details": "Homo sapiens, NCI-H1299, 48 h, read-out: IC50 (H1299)", "description": "(§3) We assessed the anti-tumor effects of compound 8 by evaluation of cancer cell viability. Compound 8 reduced cell viability with an IC50 of about 5 µM in MTT reduction assays in HCT116, MCF7, and H1299 cells (Table 2). […] To determine whether cancer cell death brought about by compound 8 is PKM2 dependent, PKM2 was knocked down in HCT116 cells using two different shRNA sequences that specifically targeted exon 10 without interfering with PKM1 expression. Compound 8 is an inhibitor which causes a loss of function of PKM2. If PKM2 is a specially targeted by compound 8, its knockdown should render cells more vulnerable to compound 8-mediated PKM2 inhibition since shRNA and compound 8 work synergistically by reducing the intracellular drug target concentration.\n(§4) Cells were seeded in 96-well plates at 5000 cells/well in DMEM media overnight. Cells were treated with different concentrations of test compound for 48 h at 37 °C in 5% CO2. Cell viability was assayed with the MTS assay (Promega) and trypan blue staining according to the manufacturer’s instructions."}, "MCF7 cells": {"system": "MCF7 cells", "assay": "cell viability test, MCF7", "type": "cell-based", "details": "Homo sapiens, MCF7, 48 h, read-out: IC50 (MCF7)", "description": "as §3, §4"}, "PKM2 [2]": {"molecular_target": "PKM2 (Homo sapiens, UniProt P14618)", "sequence (P14618 whole entry)": "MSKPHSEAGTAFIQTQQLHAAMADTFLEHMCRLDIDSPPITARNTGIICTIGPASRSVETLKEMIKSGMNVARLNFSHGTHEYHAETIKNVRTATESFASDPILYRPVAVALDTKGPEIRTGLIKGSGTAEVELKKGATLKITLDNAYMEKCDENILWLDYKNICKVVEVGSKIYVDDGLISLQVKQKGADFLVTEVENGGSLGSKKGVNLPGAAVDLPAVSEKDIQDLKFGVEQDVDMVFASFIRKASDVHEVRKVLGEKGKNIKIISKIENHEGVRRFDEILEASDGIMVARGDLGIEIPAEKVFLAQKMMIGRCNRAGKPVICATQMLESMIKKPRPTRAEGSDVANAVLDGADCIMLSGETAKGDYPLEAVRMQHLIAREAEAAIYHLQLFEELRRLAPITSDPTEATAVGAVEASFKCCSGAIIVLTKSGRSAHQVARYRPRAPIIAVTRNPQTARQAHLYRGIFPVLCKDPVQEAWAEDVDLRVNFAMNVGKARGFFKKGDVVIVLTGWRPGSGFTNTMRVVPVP", "assay": "fluorescent pyruvate kinase-lactate dehydrogenase (PK-LDH) coupled assay, PKM2", "type": "biochemical", "set-up": "His-tag (N); made in house; host or cells: Escherichia coli BL21", "description": "A random screening of an in-house small molecule library (~1000 total molecules) was undertaken to identify new PKM2 modulators, which can block the interaction of PKM2 and VDAC3. The activity of these test compounds was assessed with a fluorescent PK-LDH coupled assay by a previously reported method (Supplementary Figure S4a)[37]. […] We undertook structural optimization by chemical modification. We designed new compounds utilizing a methyl group instead of the NP-1 chlorine moiety. Synthesis of target compounds was carried out according to the six-step protocol outlined in Supplementary Figure S4d, which was based on a previously described procedure[39],[40].\nas §1, §2"}, "HCT116 cells": {"system": "HCT116 cells", "assay": "cell viability test, HCT116", "type": "cell-based, human", "details": "Homo sapiens, HCT-116, 48 h, read-out: IC50 (HCT116)", "description": "as §3, §4"}, "PKM1": {"molecular_target": "T2, PKM1 (Homo sapiens, UniProt P14618)", "T2 construct": "His-tag (N); made in house; host or cells: Escherichia coli BL21", "T2 sequence (P14618 1-531 isoform P14618-2)": "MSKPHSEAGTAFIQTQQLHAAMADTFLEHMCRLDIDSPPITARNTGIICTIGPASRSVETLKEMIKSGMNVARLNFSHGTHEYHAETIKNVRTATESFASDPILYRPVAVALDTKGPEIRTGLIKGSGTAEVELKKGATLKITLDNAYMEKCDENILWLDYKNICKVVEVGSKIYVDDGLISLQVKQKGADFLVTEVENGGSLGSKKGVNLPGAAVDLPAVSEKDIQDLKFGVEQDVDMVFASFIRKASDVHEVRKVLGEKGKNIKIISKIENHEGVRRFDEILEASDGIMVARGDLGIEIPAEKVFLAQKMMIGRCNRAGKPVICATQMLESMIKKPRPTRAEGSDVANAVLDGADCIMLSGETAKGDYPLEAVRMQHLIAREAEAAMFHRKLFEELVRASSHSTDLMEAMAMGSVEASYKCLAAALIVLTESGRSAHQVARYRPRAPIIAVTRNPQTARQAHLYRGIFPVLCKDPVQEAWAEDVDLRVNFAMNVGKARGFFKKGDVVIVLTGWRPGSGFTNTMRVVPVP", "assay": "fluorescent PK-LDH coupled assay, PKM1", "type": "biochemical", "description": "as §1, §2"}, "[3]": {"system": "PKM2 mitochondrial translocation", "assay": "PKM2 mitochondrial translocation (fractionation, western blot) in HCT116 cells", "type": "cell-based, human", "details": "for PKM2 mitochondrial translocation: HCT116, Supplementary Figure S1a", "description": "Fig. 6 Compound 8 blocks PKM2 mitochondrial translocation under nutritional stress and inhibits tumor growth in vivo. a Compound 8 blocks glucose starvation induced PKM2 mitochondrial translocation. Isolation of mitochondria and immunoblot of PKM2, tubulin and Tom 40 were carried out with or without compound 8 treatment. b Compound 8 disrupts interaction of PKM2 and VDAC3. HCT116 cells were transfected with HA-tagged PKM2, cells were harvested and subjected to stag pull down after 8 h 20 µM compound 8 treatment. c Compound 8 induces VDAC3 for degradation. cells were harvested and evaluated VDAC3 protein levels after 8 h 10 or 20 µM compound 8 treatment. d, e Compound 8 caused a decrease in the rate of NADH oxidation. After 8 h of treatment with 20 µM compound 8, HCT116 cells mitochondria were isolated for NADH oxidation assays. NAD/NADH ratios in HCT116 cell lysates were evaluated by LC–MS. f Compound 8 inhibited ATP production in HCT116 cells. g The tumor volume (n = 7) of HCT116 xenografts from mice with intraperitoneal injection of compound 8 and vehicle control\nHCT116 cells were harvested and washed two times with cold PBS. Cells were then homogenized in a buffer (220 mM mannitol, 70 mM sucrose, 2 mM EGTA, 5 mM MOPS-Tris pH 7.4, 2 mM Taurine, 0.2% BSA). The homogenate was spun for 5 min at 800g.The supernatant containing the cytoplasmic and mitochondrial fractions were transferred to a fresh tube and spun for 5 min at 12,000g. The pellet contained the mitochondrial fraction and the supernatant contained the cytoplasmic fraction.\nCells were lysed in buffer containing 50 mM Tris pH8.0, 2 mM EDTA, 150 mM NaCl, 0.5% Nonidet P-40, 10% glycerol and protease inhibitor PMSF. Western blot analysis was carried out based on standard methods. The following commercial antibodies were used as probes: anti-Flag antibody (Sigma, F3165), anti-HA antibody (Sigma, H3663), anti-α-Tubulin (EasyBio, BE0026–100), anti-PKM2 (RuiYingBio, RLT3777), anti-TOM 40 (Santa Cruz sc-365467), anti-succinyllysine antibody (PTM BIO PTM-901), anti-GAPDH (SanJian)."}, "PKM2 succinylation": {"system": "PKM2 succinylation", "details": "100 μM, 10 h, HCT116", "procedure": "Mitochondria and nuclear fractions were prepared from HCT116 cells under glucose starvation for 10 h. Immunofluorescence analysis was carried out after 10 h of glucose starvation. […] Analysis of PKM2 succinylation in whole-cell extracts prepared from HCT116 cells treated with increasing concentrations of glucose (0, 5, and 25 mM) or SIRT5 overexpression. Lysates prepared from these cells were pulled down with Flag beads and analyzed with antibody to succinylated lysine. d Effect of glucose starvation on endogenous PKM2 succinylation in cells. Analysis of PKM2 succinylation in whole-cell extracts prepared from HCT116 cells treated with increasing concentrations of glucose (0 and 25 mM). […] HCT116 cells were transfected with expression constructs of GFP-tagged vector control GFP-SIRT5. After 10 h glucose starvation, western blot analysis of cytosolic and mitochondrial fractions was performed to evaluate translocation of PKM2 from the cytosolic compartment to the mitochondria. […] 5000 HCT116 cells stably infected with Flag-PKM2 or Flag-PKM2 K433E virus were seeded into 96-well plates and live cell counts were measured in a blood cell counting chamber with trypan blue staining."}},
  "note": "Like-named read-outs stand apart in the source and are kept apart here. Peptide text beside a SMILES is read from it. * marks the point of attachment. Cbz = O=C(OCc1ccccc1)*",
  "data": [
    {"compound": "Cc1ccc(C)n1-c1ccc(O)c(C(=O)O)c1", "note": "[Compound 3]", "values": [
      {"measurement": "suppression of tumor cell proliferation", "setting": "tumor cell", "result": "little suppression of tumor cell proliferation below 200 µM"},
      {"measurement": "PKM2 inhibition", "setting": "PKM2 [1]", "result": "inhibits PKM2 activity at micromolar concentrations"}
    ]},
    {"compound": "CC(C)C[C@@H](C=O)NC(=O)[C@H](CC(C)C)NC(=O)[C@H](CC(C)C)NC(=O)OCc1ccccc1", "note": "[MG132, reference compound] (Cbz-Leu-Leu-Leu-aldehyde)", "values": [
      {"measurement": "VDAC3 protein level", "setting": "VDAC3", "result": "upregulated VDAC3"}
    ]},
    {"compound": "CC1=C(COP(N)(=O)N(CCCl)CCCl)C(=O)c2ccccc2C1=O", "note": "(stereo not drawn) [NP-1]", "values": [
      {"measurement": "IC50", "setting": "PKL", "result": "69.6 ± 6.26", "unit": "µM"},
      {"measurement": "IC50", "setting": "H1299 cells", "result": "8.17 ± 1.92", "unit": "µM"},
      {"measurement": "IC50", "setting": "MCF7 cells", "result": "17.5 ± 6.34", "unit": "µM"},
      {"measurement": "IC50", "setting": "PKM2 [2]", "result": "2.93 ± 0.77", "unit": "µM"},
      {"measurement": "PKM2 inhibitory activity compared with shikonin", "setting": "PKM2 [2]; Supplementary Figure S4b", "result": "more powerful than shikonin"},
      {"measurement": "selectivity for PKM2 over PKM1 and PKL", "setting": "PKM2 [2]; Supplementary Figure S4c", "result": "highly selective, dose-dependent inhibition of PKM2 with less inhibition of PKM1 and PKL"},
      {"measurement": "IC50", "setting": "HCT116 cells", "result": "14.3 ± 3.57", "unit": "µM"},
      {"measurement": "IC50", "setting": "PKM1", "result": "13.7 ± 1.14", "unit": "µM"}
    ]},
    {"compound": "CC(C)=CC[C@@H](O)C1=CC(=O)c2c(O)ccc(O)c2C1=O", "note": "[Shikonin, reference compound]", "values": [
      {"measurement": "IC50", "setting": "PKL; PK-LDH coupled assay, read-out: IC50 (PKL)", "result": "39.2 ± 6.53", "unit": "µM"},
      {"measurement": "induction of cell apoptosis", "setting": "tumor cell", "result": "induces cell apoptosis at low concentrations"},
      {"measurement": "IC50", "setting": "PKM1; recombinant enzyme, PK-LDH coupled assay, read-out: IC50 (PKM1)", "result": "13 ± 3.37", "unit": "µM"}
    ]},
    {"compound": "O=C(O)CCC(=O)O", "note": "[succinic acid, reference compound]", "values": [
      {"measurement": "mitochondrial PKM2", "setting": "[3]; 100 μM, 10 h, HCT116", "result": "increased mitochondrial PKM2"},
      {"measurement": "PKM2 succinylation", "setting": "PKM2 succinylation", "result": "increased PKM2 succinylation"}
    ]},
    {"compound": "epidermal growth factor: growth factor used to stimulate HCT116 cells", "values": [
      {"measurement": "PKM2 mitochondrial translocation", "setting": "[3]", "result": "did not increase PKM2 mitochondrial translocation"}
    ]},
    {"compound": "insulin: hormone used to stimulate HCT116 cells", "values": [
      {"measurement": "PKM2 mitochondrial translocation", "setting": "[3]", "result": "did not increase PKM2 mitochondrial translocation"}
    ]}
  ]
}
